Consider eight molecules from patent US20230295133A1, “PROCESS FOR PREPARING A COMPOUND USEFUL TO TREAT MYCOSES” (PULMOCIDE LIMITED, priority 2014, published 2023).

In brackets after ≈: the same amount, converted by molar mass.

Data set [1] deals with aspergillus fumigatus infection of BEAS2B cells. Description: Aspergillus fumigatus infection of bronchial epithelial cells (GM in supernatant). The data set is classed as cell-based. As to conditions: bronchial epithelial cells infected with Aspergillus fumigatus; read-out: MIC50 Infection of BEAS2B cells. In a few lines:
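BEAS2B cells in 10% FBS RPMI-1640 pre-treated with compound (0.5% DMSO final) for 1 hr at 35 °C, then infected with A. fumigatus conidia (0.5×10^5/ml suspension) for 24 hr at 35 °C. Galactomannan in 1:20-diluted supernatant measured by Platelia GM-EIA; IC50 from percent-inhibition concentration-response curves.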

A short description of data set [2]: Cell viability: resazurin assay. The data set is classed as cell-based, human. As to conditions: human, BEAS2B cells; n = 3-5. The gist of the method:
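BEAS2B cells in RPMI-LHC8, exposed to compound for 1 day at 37 °C (0.5% DMSO final), then resazurin added for a further 4 h. Fluorescence (ex 545/em 590 nm) gives % viability loss vs 0.5% DMSO vehicle; CC50 from concentration-response curve.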
(Resazurin is reduced to fluorescent resorufin, in cell work by metabolically active cells.)

Data set [3] concerns Aspergillus fumigatus L98H (TR34/L98H). In words: Broth microdilution assay (modified EUCAST). It is filed as cell-based. As to conditions: Aspergillus fumigatus, read-out: MIC75 against Aspergillus fumigatus isolate L98H. The gist of the method: (§1)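 Spores from 3-day Sabouraud cultures (working suspension 2 × 10^5 spores/mL) were added to an equal volume of RPMI-1640 (2 mM L-glutamine, 0.5% BSA, 2% glucose, 0.165 M MOPS, pH 7) containing compound, in quadruplicate. After 48 hr at 35 °C, OD530 gave percent inhibition. MIC50, MIC75 and MIC90 came from concentration-response curves.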

For data set [4], the system named is Aspergillus fumigatus NCPF2010. Description: Broth microdilution assay (modified EUCAST). The data set is classed as cell-based. As to conditions: Aspergillus fumigatus, NCPF2010, read-out: MIC75 against Aspergillus fumigatus isolate NCPF2010. In a few lines: as §1
For data set [5], the system named is Aspergillus fumigatus NCPF7099. Description: Broth microdilution assay (modified EUCAST). The data set is classed as cell-based. As to conditions: Aspergillus fumigatus, NCPF7099, n = 3, read-out: MIC75 against Aspergillus fumigatus isolate NCPF7099. The gist of the method: as §1
The test system of data set [6] is Aspergillus fumigatus NCPF7100. In words: Broth microdilution assay (modified EUCAST). The data set is classed as cell-based. As to conditions: Aspergillus fumigatus, NCPF7100, read-out: MIC75 against Aspergillus fumigatus isolate NCPF7100. A general note: Broth dilution looks for growth in wells or tubes with falling amounts of substance.
For data set [7], the system named is aspergillus fumigatus (ATCC 13073 [strain: NIH 5233]). In words: In vivo anti-fungal activity, prophylactic and therapeutic treatment of infected immunocompromised neutropenic mice. More on the design: species or system A/J mice. As to conditions: for % Inhibition versus Infected Control, GM in BALF / % Inhibition versus Infected Control, GM in serum / % Inhibition versus Infected Control, Lung Fungal Load: therapeutic treatment (days 1, 2 and 3); for % Inhibition versus Infected Controls, GM in BALF / % Inhibition versus Infected Controls, GM in serum / % Inhibition versus Infected Controls, Lung Fungal Load: prophylactic treatment (days 0, 1, 2 and 3).

Take `Cc1nc(N2CCN(c3ccc(C(=O)Nc4ccc(F)cc4)cc3)CC2)ccc1OC[C@@H]1CO[C@@](Cn2cncn2)(c2ccc(F)cc2F)C1` [Example 3, 4-(4-(5-(((3R,5R)-5-((1H-1,2,4-Triazol-1-yl)Methyl)-5-(2,4-Difluorophenyl)Tetra Hydrofuran-3-yl)Methoxy)-6-Methylpyridin-2-yl)Piperazin-1-yl)-N-(4-Fluorophenyl) Benzamide]: the MIC50 in data set [1] stood at 0.0517 µM (≈ 0.0353 µg/mL). The molecule also gave a CC50 at 1 day in data set [2] above 14.6 µM. The MIC came to 0.033 µM (≈ 0.0226 µg/mL) in data set [3], 0.018 µM (≈ 0.0123 µg/mL) in data set [4], 0.0276 µM (≈ 0.0189 µg/mL) in data set [5] and 0.0451 µM (≈ 0.0308 µg/mL) in data set [6]. Moreover, the entries for the “% Inhibition versus Infected Control, GM in BALF” value in data set [7] (0.08 mg/mL) and in data set [7] (0.4 mg/mL) were 95% and 86%, respectively. The “% Inhibition versus Infected Control, GM in serum” value in data set [7] (0.08 mg/mL) came out at 92%; in data set [7] (0.4 mg/mL), 89%. Besides, the figures for the “% Inhibition versus Infected Control, Lung Fungal Load” value in data set [7] (0.08 mg/mL) and in data set [7] (0.4 mg/mL) were 98% and 96%, respectively.
In the case of `N#Cc1cc(N2CCN(c3ccc(C(=O)Nc4ccc(F)cc4)cc3)CC2)ccc1OC[C@@H]1CO[C@@](Cn2cncn2)(c2ccc(F)cc2F)C1` [Example 4, 4-(4-(4-(((3R,5R)-5-((1H-1,2,4-Triazol-1-yl)Methyl)-5-(2,4-Difluorophenyl) Tetrahydrofuran-3-yl)Methoxy)-3-Cyanophenyl)Piperazin-1-yl)-N-(4-Fluorophenyl) Benzamide], the MIC50 in data set [1] was 0.00777 µM (≈ 0.00539 µg/mL). Also, in data set [2], the CC50 at 1 day was above 14.4 µM. For the same molecule, the MIC in data set [3] was determined as 0.0737 µM (≈ 0.0511 µg/mL); in data set [4] it was 0.00868 µM (≈ 0.00602 µg/mL); in data set [5], 0.0413 µM (≈ 0.0287 µg/mL); in data set [6], 0.0383 µM (≈ 0.0266 µg/mL). The “% Inhibition versus Infected Controls, GM in BALF” value in data set [7] (0.4 mg/mL) turned out to be 84%. The “% Inhibition versus Infected Controls, GM in serum” value in data set [7] (0.4 mg/mL) turned out to be 90%. Besides, the “% Inhibition versus Infected Controls, Lung Fungal Load” value in data set [7] (0.4 mg/mL) was 85%.
For `Cc1cc(N2CCN(c3ccc(C(=O)Nc4ccc(S(N)(=O)=O)cc4)cc3)CC2)ccc1OC[C@@H]1CO[C@@](Cn2cncn2)(c2ccc(F)cc2F)C1` [Example 19, 4-(4-(4-(((3R, 5R)-5-((1H-1,2,4-triazol-1-yl)methyl)-5-(2,4-difluorophenyl)tetrahydrofuran-3-yl)methoxy)-3-methylphenyl)piperazin-1-yl)-N-(4-sulfamoylphenyl)benzamide], the MIC50 in data set [1] is 0.0172 µM (≈ 0.0128 µg/mL). The molecule also came in with a CC50 at 1 day in data set [2] above 13.4 µM. Besides, the MIC is 0.0577 µM (≈ 0.0429 µg/mL) in data set [3], 0.0166 µM (≈ 0.0123 µg/mL) in data set [4], 0.0089 µM (≈ 0.00662 µg/mL) in data set [5] and 0.0227 µM (≈ 0.0169 µg/mL) in data set [6]. Further, the “% Inhibition versus Infected Controls, GM in BALF” value came to 16% in data set [7] (0.4 mg/mL) and 41% in data set [7] (2 mg/mL). Further, the “% Inhibition versus Infected Controls, GM in serum” value is recorded as 30% in data set [7] (0.4 mg/mL) and 47% in data set [7] (2 mg/mL). Moreover, the entries for the “% Inhibition versus Infected Controls, Lung Fungal Load” value in data set [7] (0.4 mg/mL) and in data set [7] (2 mg/mL) were 62% and 74%, respectively.
With `O=C(Nc1ccc(F)cc1)c1ccc(N2CCN(c3ccc(OC[C@@H]4CO[C@@](Cn5cncn5)(c5ccc(F)cc5F)C4)c(CO)c3)CC2)cc1` [Example 16, 4-(4-(4-(((3R, 5R)-5-((1H-1,2,4-triazol-1-yl)methyl)-5-(2,4-difluorophenyl)tetrahydrofuran-3-yl)methoxy)-3-hydroxymethylphenyl)piperazin-1-yl)-N-(4-fluorophenyl)benzamide], in data set [1], the MIC50 is 0.00082 µM (≈ 0.000573 µg/mL). In data set [2], this molecule displayed a CC50 at 1 day above 14.3 µM. Moreover, the MIC in data set [3] is 0.0335 µM (≈ 0.0234 µg/mL); in data set [4], 0.00512 µM (≈ 0.00358 µg/mL); in data set [5] it was 0.00926 µM (≈ 0.00647 µg/mL); in data set [6], 0.00658 µM (≈ 0.0046 µg/mL). The entries for the “% Inhibition versus Infected Control, GM in BALF” value in data set [7] (0.08 mg/mL) and in data set [7] (0.4 mg/mL) were 76% and 88%, respectively. In addition, the “% Inhibition versus Infected Control, GM in serum” value in data set [7] (0.08 mg/mL) worked out at 62%; in data set [7] (0.4 mg/mL), 85%. In addition, the “% Inhibition versus Infected Control, Lung Fungal Load” value worked out at 91% in data set [7] (0.08 mg/mL) and 96% in data set [7] (0.4 mg/mL).
`Cc1cc(N2CCN(c3ccc(C(=O)Nc4ccc(C#N)cc4F)cc3)CC2)ccc1OC[C@@H]1CO[C@@](Cn2cncn2)(c2ccc(F)cc2F)C1` [Example 23, 4-(4-(4-(((3R, 5R)-5-((1H-1,2,4-triazol-1-yl)methyl)-5-(2,4-difluorophenyl)tetrahydrofuran-3-yl)methoxy)-3-methylphenyl)piperazin-1-yl)-N-(4-cyano-2-fluorophenyl)benzamide]: the MIC50 in data set [1] stood at 0.00337 µM (≈ 0.00239 µg/mL). Besides, the CC50 at 1 day in data set [2] was above 14.1 µM. Moreover, the MIC was 0.0602 µM (≈ 0.0426 µg/mL) in data set [3], 0.0126 µM (≈ 0.00892 µg/mL) in data set [4], 0.0284 µM (≈ 0.0201 µg/mL) in data set [5] and 0.0443 µM (≈ 0.0314 µg/mL) in data set [6]. For the same molecule, the “% Inhibition versus Infected Controls, GM in BALF” value in data set [7] (0.4 mg/mL) was determined as 71%. Further, in data set [7] (0.4 mg/mL), the “% Inhibition versus Infected Controls, GM in serum” value came to 79%. Moreover, in data set [7] (0.4 mg/mL), the “% Inhibition versus Infected Controls, Lung Fungal Load” value was found to be 56%.
As for `N#Cc1ccc(NC(=O)c2ccc(N3CCN(c4ccc(OC[C@@H]5CO[C@@](Cn6cncn6)(c6ccc(F)cc6F)C5)c(CO)c4)CC3)cc2)nc1` [Example 38, 4-(4-(4-(((3R, 5R)-5-((1H-1,2,4-triazol-1-yl)methyl)-5-(2,4-difluorophenyl)tetrahydrofuran-3-yl)methoxy)-3-hydroxymethylphenyl)piperazin-1-yl)-N-(5-cyanopyridin-2-yl)benzamide], in data set [1], the MIC50 worked out at 0.00486 µM (≈ 0.00343 µg/mL). Further, in data set [2], the CC50 at 1 day is above 14.1 µM. In addition, the MIC in data set [3] is 0.0654 µM (≈ 0.0462 µg/mL); in data set [4], 0.0124 µM (≈ 0.00876 µg/mL); in data set [5] it was 0.0319 µM (≈ 0.0225 µg/mL); in data set [6], 0.0336 µM (≈ 0.0237 µg/mL).
For `Cc1cc(N2CCN(c3ccc(C(=O)Nc4cccc(F)c4)cc3)CC2)ccc1OC[C@@H]1CO[C@@](Cn2cncn2)(c2ccc(F)cc2F)C1` [Example 14, 4-(4-(4-(((3R, 5R)-5-((1H-1,2,4-triazol-1-yl)methyl)-5-(2,4-difluorophenyl)tetrahydrofuran-3-yl)methoxy)3-methylphenyl)piperazin-1-yl)-N-(3-fluorophenyl)benzamide], in data set [1], the MIC50 was found to be 0.00836 µM (≈ 0.00571 µg/mL). For the same molecule, the CC50 at 1 day in data set [2] is above 14.6 µM. The MIC in data set [3] came out at 0.0735 µM (≈ 0.0502 µg/mL); in data set [4], 0.0431 µM (≈ 0.0294 µg/mL); in data set [5], 0.0332 µM (≈ 0.0227 µg/mL); in data set [6], 0.041 µM (≈ 0.028 µg/mL).
For `Cc1cc(N2CCN(c3ccc(C(=O)Nc4c(F)cc(F)cc4F)cc3)CC2)ccc1OC[C@@H]1CO[C@@](Cn2cncn2)(c2ccc(F)cc2F)C1` [Example 31, 4-(4-(4-(((3R, 5R)-5-((1H-1,2,4-triazol-1-yl)methyl)-5-(2,4-difluorophenyl)tetrahydrofuran-3-yl)methoxy)3-methylphenyl)piperazin-1-yl)-N-(2,4,6-trifluorophenyl)benzamide], in data set [1], the MIC50 was 0.0107 µM (≈ 0.00769 µg/mL). In addition, the CC50 at 1 day in data set [2] was above 13.9 µM. Moreover, the MIC in data set [3] worked out at 0.163 µM (≈ 0.117 µg/mL); in data set [4], 0.0439 µM (≈ 0.0316 µg/mL); in data set [5], 0.0109 µM (≈ 0.00783 µg/mL); in data set [6], 0.0679 µM (≈ 0.0488 µg/mL).

What is called MIC50 is an inhibitory concentration at the 50% level, which refers to growth in some studies and to a panel of isolates in others. By CC50 is commonly meant the concentration giving 50% cytotoxicity. The low end stands for harm at low concentration, the high end for better tolerance by the cells.
